This data set deals with PBS pH 7.4 solubility, LC-UV/MS, 1 h shake. In words: qHTS Assay for Agonists of the Relaxin Receptor RXFP1: PBS Solubility. The following applies: stronger effect = higher value. The source says:
The relaxin hormone is involved in the variety of biological functions in normal tissues and diseases. The role of relaxin is well-established in female reproduction and parturition, mammary gland and endometrial development, maintenance of myometrial quiescence during pregnancy. Relaxin signaling through its G protein-coupled receptor (GPCR) RXFP1 results in ECM remodeling through regulation of collagen deposition, cell invasiveness, proliferation and overall tissue homeostasis. […] Recombinant human relaxin (rhRlx) is currently being tested in clinical trials as a protective agent in congestive heart failure, in treating severe preeclampsia, and as an anti-fibrotic agent in systemic sclerosis. The probe and analogs were tested to assess their PBS solubility in this assay. NIH Chemical Genomics Center [NCGC] NIH Molecular Libraries Probe Production Centers Network [MLPCN] MLPCN Grant: R03 MH085705 Assay Submitter (PI): Alexander Agoulnik
1. 8ul of reference and test compound stock solution were added to 392ul 100mM phosphate buffer (pH 7.4) 2. Sample tubes were shaken for 1 hr (1000 rpm) at room temperature 3. Samples were centrifuged (10 min at 12000 rpm) to precipitate un-dissolved particles 4. Supernatants were transferred to new tubes 5. Concentration of the supernatant was determined by LC-UV or LC-MS/MS
On the technique in general: In qHTS, concentration-response curves come from the screen itself.

Each structure is given as a SMILES string. In brackets after ≈: the same amount, converted by molar mass. Inconclusive results are not listed.

The term solubility denotes the concentration that dissolves in the medium under given conditions.

Regarding `CC(C)Oc1ccccc1C(=O)Nc1ccccc1C(=O)Nc1cccc(S(=O)(=O)C(F)(F)F)c1`, the solubility was 7 µM (≈ 3.55 µg/mL). The figure for `COc1ccccc1C(=O)Nc1ccccc1C(=O)Nc1cccc(SC(F)(F)F)c1` is 2.9 µM (≈ 1.29 µg/mL); for `CCOc1ccccc1C(=O)Nc1ccccc1C(=O)Nc1cccc(C(F)(F)F)c1` it is 1.7 µM (≈ 0.728 µg/mL).

As for `CCOc1ccccc1C(=O)Nc1ccccc1C(=O)Nc1cccc(S(=O)(=O)C(F)(F)F)c1`, the solubility was 1.1 µM (≈ 0.542 µg/mL). The same measure for `CCCCOc1ccccc1C(=O)Nc1ccccc1C(=O)Nc1cccc(S(=O)(=O)C(F)(F)F)c1`: 5.3 µM (≈ 2.76 µg/mL).

The values above are taken from PubChem BioAssay AID602287 (National Center for Advancing Translational Sciences (NCATS), 2012).
